Measured values: the NIST ThermoML archive (doi:10.1016/j.tca.2005.11.005)

Test: molar heat capacity at constant pressure; xn = mol fraction of the nth substance listed
Settings: 101 kPa, Crystal, Small sample (50 mg) DSC

[Ce+4].[O-2].[O-2] [ceric oxide] + [O-2].[O-2].[U+4]
molar heat capacity at constant pressure [J/K/mol]
Settings	298 K	300 K	400 K	500 K	600 K	700 K	800 K
x2 = 0	62.6	62.7	68.8	73	76.5	78.6	79.3
x2 = 0.197	62.8	64	73.3	81.2	84.6	84.5	85.2
x2 = 0.491	64.2	64.8	76.8	85.9	89.2	89.6	88.3
x2 = 0.809	70.1	70.4	79.7	86	88.9	90.3	92

[O-2].[O-2].[U+4] [uranium dioxide] + [Ce+4].[O-2].[O-2]
x1 = 1
Settings	molar heat capacity at constant pressure [J/K/mol]
298 K	64
300 K	64.1
400 K	72.7
500 K	77.5
600 K	80.4
700 K	82.6
800 K	85.9
